Where only a bound is given, the exact number is not on record here.

The target in this assay is T1, N-terminal 6His-tagged ROCK2 catalytic domain 11-552 (Homo sapiens, UniProt O75116).
T1 construct: N-terminal 6His-tagged ROCK2 catalytic domain 11-552; 6His (N); purchased Dundee University, UK; host or cells: baculovirus expression system
T1 sequence (O75116 11-552): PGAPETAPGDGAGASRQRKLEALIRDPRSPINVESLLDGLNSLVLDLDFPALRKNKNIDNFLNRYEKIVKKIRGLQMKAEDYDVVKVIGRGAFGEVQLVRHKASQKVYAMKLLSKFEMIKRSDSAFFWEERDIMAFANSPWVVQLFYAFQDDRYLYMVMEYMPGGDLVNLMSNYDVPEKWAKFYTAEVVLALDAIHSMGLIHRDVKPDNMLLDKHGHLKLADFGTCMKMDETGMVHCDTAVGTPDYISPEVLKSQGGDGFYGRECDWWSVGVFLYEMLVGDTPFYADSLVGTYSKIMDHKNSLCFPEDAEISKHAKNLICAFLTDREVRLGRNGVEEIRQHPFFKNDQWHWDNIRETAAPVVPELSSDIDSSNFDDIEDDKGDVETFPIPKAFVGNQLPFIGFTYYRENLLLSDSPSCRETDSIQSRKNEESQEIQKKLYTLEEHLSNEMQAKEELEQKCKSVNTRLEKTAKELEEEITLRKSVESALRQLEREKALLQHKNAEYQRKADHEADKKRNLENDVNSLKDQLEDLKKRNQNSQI
The experiment in a line: ROCK2 binding activity: ROCK2 inhibition, ADP-Glo Kinase Assay. The format is biochemical. To be noted: 1.25 nM ROCK2, 100 μM long S6 peptide, 20 μM ATP; 1 hour pre-incubation; read-out: ADP-Glo kinase activity assay ROCK2 Category. A digest of the protocol: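 1.25 nM baculovirus-expressed ROCK2 pre-incubated 1 h with compound (1% DMSO), then 100 μM long S6 peptide and 20 μM ATP added for 1 h; 50 mM HEPES pH 7.5, 10 mM Mg acetate, 1 mM DTT. ADP-Glo luminescence; IC50 from four-parameter logistic fit.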
In general terms: ADP-Glo first removes unused ATP, then detects ADP through luciferase.
For the compound `Cn1nc(-c2ccc(C(=O)NC3(C)CC3)cc2)nc1Nc1ccc2[nH]ncc2c1Cl` [Example 258], the IC50 was less than 300 nM.

Regarding `CN1CC(NC(=O)c2ccc(-c3nc(Nc4ccc5[nH]ncc5c4Cl)n(C)n3)cc2Cl)C1` [Example 259], the IC50 fell in the range of 3000 to 10000 nM.

For `Cn1nc(-c2ccc(C(=O)Nc3cccnc3)cc2)nc1Nc1ccc2[nH]ncc2c1Cl` [Example 260], the IC50 is less than 300 nM.

Regarding `Cn1nc(-c2ccc(C(=O)Nc3ccccc3)cc2)nc1Nc1ccc2[nH]ncc2c1Cl` [Example 261], the IC50 is less than 300 nM.

Take `CCNC(=O)c1ccc(-c2nc(Nc3ccc4[nH]ncc4c3Cl)n(C)n2)c(C)c1` [Example 262]: the IC50 is less than 300 nM.

Take `CN1CC(NC(=O)c2ccc(-c3nc(Nc4ccc5[nH]ncc5c4Cl)n(C)n3)cc2)C1` [Example 263]: the IC50 was in the range of 300 to 3000 nM.

As for `COc1cc(-c2nc(Nc3ccc4[nH]ncc4c3Cl)n(C)n2)ccc1C(=O)NC1(C)CC1` [Example 264], the IC50 was less than 300 nM.

For the compound `CCNC(=O)c1ccc(-c2nc(Nc3ccc4[nH]ncc4c3Cl)n(C)n2)c(Cl)c1` [Example 265], the IC50 is less than 300 nM.

On to `Cn1nc(-c2ccc(C(=O)Nc3ccccn3)cc2)nc1Nc1ccc2[nH]ncc2c1Cl` [Example 266], for which the IC50 is less than 300 nM.

On to `COc1cc(-c2nc(Nc3ccc4[nH]ncc4c3Cl)n(C)n2)ccc1C(=O)NC1CN(C)C1` [Example 267], for which the IC50 is less than 300 nM.

As for `Cn1nc(-c2cccc(C(=O)NCC(F)(F)F)c2)nc1Nc1ccc2[nH]ncc2c1Cl` [Example 268], the IC50 was less than 300 nM.

Turning to `Cn1nc(-c2cccc(C(=O)NC3CC3)c2)nc1Nc1ccc2[nH]ncc2c1Cl` [Example 269], the IC50 was less than 300 nM.

`CC(C)NC(=O)c1cccc(-c2nc(Nc3ccc4[nH]ncc4c3Cl)n(C)n2)c1` [Example 270]: the IC50 was less than 300 nM.

On to `COc1cc(-c2nc(Nc3cc(Cl)c4[nH]ncc4c3)n(C)n2)ccc1C(=O)NC(C)C` [Example 271], for which the IC50 is less than 300 nM.

As for `CCNC(=O)c1ccc(-c2nc(Nc3ccc4[nH]ncc4c3C3CC3)n(C)n2)cc1OC` [Example 272], the IC50 was less than 300 nM.

For `COc1cc(-c2nc(Nc3ccc4[nH]ncc4c3C3CC3)n(C)n2)ccc1C(=O)NC(C)C` [Example 273], the IC50 was less than 300 nM.

Turning to `COc1cc(-c2nc(Nc3ccc4[nH]ncc4c3C3CC3)n(C)n2)ccc1OCC(=O)NC(C)C` [Example 274], the IC50 was less than 300 nM.

Take `COc1cc(-c2nc(Nc3ccc4[nH]ncc4c3C3CC3)n(C)n2)ccc1C(=O)NC1CN(C)C1` [Example 275]: the IC50 was 300 to 3000 nM.

With `Cc1cc(-c2nc(Nc3ccc4[nH]ncc4c3C3CC3)n(C)n2)ccc1C(=O)NCC(F)(F)F` [Example 276], the IC50 is less than 300 nM.

Turning to `CCNC(=O)c1ccc(-c2nc(Nc3ccc4[nH]ncc4c3C3CC3)n(C)n2)cc1C` [Example 277], the IC50 is less than 300 nM.

On to `COc1cc(C(=O)NCC(F)(F)F)ccc1-c1nc(Nc2ccc3[nH]ncc3c2C2CC2)n(C)n1` [Example 278], for which the IC50 was less than 300 nM.

Turning to `CCNC(=O)c1ccc(-c2nc(Nc3ccc4[nH]ncc4c3C3CC3)n(C)n2)c(OC)c1` [Example 279], the IC50 was less than 300 nM.

As for `COc1cc(-c2nc(Nc3ccc4[nH]ncc4c3C3CC3)n(C)n2)ccc1C(=O)NCC(F)(F)F` [Example 280], the IC50 was less than 300 nM.

As to `Cn1nc(-c2ccc(C(=O)NC3(C(F)(F)F)CC3)cc2)nc1Nc1ccc2[nH]ncc2c1C1CC1` [Example 281], the IC50 is less than 300 nM.

On to `CCC(C)NC(=O)c1ccc(-c2nc(Nc3ccc4[nH]ncc4c3C3CC3)n(C)n2)cc1` (centres unmarked) [Example 282], for which the IC50 was less than 300 nM.

Take `Cn1nc(-c2ccc(C(=O)NCC3CC3)cc2)nc1Nc1ccc2[nH]ncc2c1C1CC1` [Example 283]: the IC50 is less than 300 nM.

Regarding `Cn1nc(-c2ccc(C(=O)NCC(F)(F)CO)cc2)nc1Nc1ccc2[nH]ncc2c1C1CC1` [Example 284], the IC50 was less than 300 nM.

For the compound `Cn1nc(-c2ccc(C(=O)NCCC(F)(F)F)cc2)nc1Nc1ccc2[nH]ncc2c1C1CC1` [Example 285], the IC50 is less than 300 nM.

`Cn1nc(-c2ccc(C(=O)NCC(C)(C)O)cc2)nc1Nc1ccc2[nH]ncc2c1C1CC1` [Example 286]: the IC50 was less than 300 nM.

On to `Cn1nc(-c2ccc(C3=NCC(C)(C)O3)cc2)nc1Nc1ccc2[nH]ncc2c1C1CC1` [Example 287], for which the IC50 was less than 300 nM.

On to `Cn1nc(-c2ccc(C(=O)NC3CC(O)C3)cc2)nc1Nc1ccc2[nH]ncc2c1C1CC1` (centres unmarked) [Example 288], for which the IC50 is less than 300 nM.

In the case of `Cn1nc(-c2ccc(C(=O)NCC(C)(C)C)cc2)nc1Nc1ccc2[nH]ncc2c1C1CC1` [Example 289], the IC50 was less than 300 nM.

With `Cn1nc(-c2ccc(C(=O)NCC(C)(C)N)cc2)nc1Nc1ccc2[nH]ncc2c1C1CC1` [Example 291], the IC50 fell in the range of 3000 to 10000 nM.

For the compound `Cn1nc(-c2ccc(C(=O)NC3(CO)CC3)cc2)nc1Nc1ccc2[nH]ncc2c1C1CC1` [Example 293], the IC50 is less than 300 nM.

For the compound `Cn1nc(-c2ccc(C(=O)NC3(C)CC3)cc2)nc1Nc1ccc2[nH]ncc2c1C1CC1` [Example 294], the IC50 was less than 300 nM.

With `CC(C)NC(=O)c1ccc(-c2nc(Nc3ccc4[nH]ncc4c3C3CC3)n(C)n2)cc1` [Example 295], the IC50 is less than 300 nM.

As for `COC(=O)CNC(=O)c1ccc(-c2nc(Nc3ccc4[nH]ncc4c3C3CC3)n(C)n2)cc1` [Example 296], the IC50 was in the range of 300 to 3000 nM.

With `Cn1nc(-c2ccc(C(=O)NC3CCC(F)(F)C3)cc2)nc1Nc1ccc2[nH]ncc2c1C1CC1` (centres unmarked) [Example 298], the IC50 is less than 300 nM.

Regarding `Cn1nc(-c2ccc(C(=O)N[C@H]3C[C@@H]3F)cc2)nc1Nc1ccc2[nH]ncc2c1C1CC1` [Example 299], the IC50 was less than 300 nM.

For the compound `Cn1cc(NC(=O)c2ccc(-c3nc(Nc4ccc5[nH]ncc5c4C4CC4)n(C)n3)cc2)cn1` [Example 300], the IC50 was less than 300 nM.

Consider `COC(=O)[C@@H](NC(=O)c1ccc(-c2nc(Nc3ccc4[nH]ncc4c3C3CC3)n(C)n2)cc1)C(C)C` [Example 301], for which the IC50 is less than 300 nM.

Regarding `COC(=O)[C@H](CC(C)C)NC(=O)c1ccc(-c2nc(Nc3ccc4[nH]ncc4c3C3CC3)n(C)n2)cc1` [Example 302], the IC50 was less than 300 nM.

On to `Cn1nc(-c2ccc(C(=O)NC3CCOC3)cc2)nc1Nc1ccc2[nH]ncc2c1C1CC1` (centres unmarked) [Example 303], for which the IC50 was less than 300 nM.

Consider `CC[C@@H](C)[C@H](NC(=O)c1ccc(-c2nc(Nc3ccc4[nH]ncc4c3C3CC3)n(C)n2)cc1)C(=O)OC` [Example 304], for which the IC50 was less than 300 nM.

For `Cn1nc(-c2ccc(C(=O)NC3CCCCC3O)cc2)nc1Nc1ccc2[nH]ncc2c1C1CC1` (centres unmarked) [Example 305], the IC50 was less than 300 nM.

Turning to `Cn1nc(-c2ccc(C(=O)NCC(N)=O)cc2)nc1Nc1ccc2[nH]ncc2c1C1CC1` [Example 306], the IC50 lay in the range of 300 to 3000 nM.

Regarding `Cn1nc(-c2ccc(C(=O)N3CCNC(C(F)(F)F)C3)cc2)nc1Nc1ccc2[nH]ncc2c1C1CC1` (centres unmarked) [Example 307], the IC50 is 300 to 3000 nM.

On to `Cn1nc(-c2ccc(C(=O)NC3(CO)CCCC3)cc2)nc1Nc1ccc2[nH]ncc2c1C1CC1` [Example 308], for which the IC50 is less than 300 nM.

For the compound `CC(C)C[C@@H](CO)NC(=O)c1ccc(-c2nc(Nc3ccc4[nH]ncc4c3C3CC3)n(C)n2)cc1` [Example 309], the IC50 is less than 300 nM.

With `CCC(CO)NC(=O)c1ccc(-c2nc(Nc3ccc4[nH]ncc4c3C3CC3)n(C)n2)cc1` (centres unmarked) [Example 310], the IC50 was less than 300 nM.
